From patent US11912699B2, “Tau-protein targeting compounds and associated” (Arvinas Operations, Inc., priority 2019, dated 2024)

The compounds below were run against T1, Tau P301L (Homo sapiens, UniProt P10636, P618L) (assay: In vitro tau degradation assay in CHOK1 Tau P301L cells (sarkosyl insoluble tau, WES)). Details: CHO-K1; CHOK1 Tau P301L cells; remaining tau in sarkosyl insoluble pellet; 48 hours with test compound at 1 μM, doxycycline removed for last 24 hours; relative to DMSO doxycycline control; read-out: Tau Protein Degradation effect at 1 μM.
T1 construct: expressed in transfected cells
Format: cell-based
Outline: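 Sarkosyl-insoluble pellet tau, measured by WES capillary immunoassay (Tau1 antibody), was scored against DMSO doxycycline control as ≤50% or >50% remaining. Cells were CHOK1 clone D1 expressing Tau P301L under doxycycline (1 μg/ml), given 1 μM compound for 48 h with doxycycline withdrawn during the last 24 h.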

T1 sequence (P10636 1-441 isoform P10636-8 P301L): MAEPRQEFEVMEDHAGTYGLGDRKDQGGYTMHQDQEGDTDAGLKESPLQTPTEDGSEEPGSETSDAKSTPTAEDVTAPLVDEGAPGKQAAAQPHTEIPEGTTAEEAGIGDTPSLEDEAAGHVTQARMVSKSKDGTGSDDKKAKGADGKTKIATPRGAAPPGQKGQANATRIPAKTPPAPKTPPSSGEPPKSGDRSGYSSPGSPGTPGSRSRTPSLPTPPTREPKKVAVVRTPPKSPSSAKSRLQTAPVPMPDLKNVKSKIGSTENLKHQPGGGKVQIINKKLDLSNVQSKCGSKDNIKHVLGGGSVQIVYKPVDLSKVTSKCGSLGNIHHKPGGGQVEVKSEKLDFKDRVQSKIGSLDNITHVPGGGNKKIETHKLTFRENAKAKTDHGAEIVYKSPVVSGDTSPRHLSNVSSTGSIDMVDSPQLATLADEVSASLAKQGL

| remaining activity at 1 µM [%] | SMILES |
| --- | --- |
| > 50 | O=C1CCC(N2C(=O)c3ccc(N4CCN(C5CC6(CCN(c7ncc(-c8ccc9c%10cnccc%10n(C(F)F)c9c8)cc7F)CC6)C5)CC4)cc3C2=O)C(=O)N1 (stereo not shown) [Compound 613, 5-(4-(7-(5-(5-(difluoromethyl)-5H-pyrido[4,3-b]indol-7-yl)-3-fluoropyridin-2-yl)-7-azaspiro[3.5]nonan-2-yl)piperazin-1-yl)-2-(2,6-dioxopiperidin-3-yl)isoindoline-1,3-dione] |
| > 50 | CC1c2ccc(-c3ccc4c5cnccc5n(C(F)F)c4c3)cc2CCN1CCCCCOc1ccc2c(c1)C(=O)N(C1CCC(=O)NC1=O)C2=O (stereo not shown) [Compound 603, 5-((5-(6-(5-(difluoromethyl)-5H-pyrido[4,3-b]indol-7-yl)-1-methyl-3,4-dihydroisoquinolin-2(1H)-yl)pentyl)oxy)-2-(2,6-dioxopiperidin-3-yl)isoindoline-1,3-dione] |

Same assay, conditions: CHO-K1; remaining tau protein in sarkosyl insoluble pellet; CHOK1 Tau P301L cells treated 48 hours with test compound at 1 μM, doxycycline removed for the last 24 hours; relative to DMSO doxycycline control; read-out: Tau Protein Degradation effect at 1 μM

| remaining activity at 1 µM [%] | SMILES |
| --- | --- |
| > 50 | Cn1c2ccncc2c2ccc(-c3ccc(OCCOCCOCCOc4ccc5c(c4)C(=O)N(C4CCC(=O)NC4=O)C5=O)nc3)nc21 (stereo not shown) [Compound 419, 2-(2,6-dioxopiperidin-3-yl)-5-(2-(2-(2-((5-(9-methyl-9H-pyrrolo[2,3-b:4,5-c′]dipyridin-2-yl)pyridin-2-yl)oxy)ethoxy)ethoxy)ethoxy)isoindoline-1,3-dione] |
| < 50 | Cn1c2ccncc2c2ccc(C3CCN(CCC4CCN(CC5CCN(c6ccc7c(c6)C(=O)N(C6CCC(=O)NC6=O)C7=O)CC5)CC4)CC3)cc21 (stereo not shown) [Compound 502, 2-(2,6-dioxopiperidin-3-yl)-5-(4-((4-(2-(4-(5-methyl-5H-pyrido[4,3-b]indol-7-yl)piperidin-1-yl)ethyl)piperidin-1-yl)methyl)piperidin-1-yl)isoindoline-1,3-dione] |
| > 50 | Cn1c2ccncc2c2ccc(-c3ccc(N4CC(C(=O)N5CCN(CCCCCOc6ccc7c(c6)C(=O)N(C6CCC(=O)NC6=O)C7=O)CC5)C4)nc3)cc21 (stereo not shown) [Compound 446, 2-(2,6-dioxopiperidin-3-yl)-5-((5-(4-(1-(5-(5-methyl-5H-pyrido[4,3-b]indol-7-yl)pyridin-2-yl)azetidine-3-carbonyl)piperazin-1-yl)pentyl)oxy) isoindoline-1,3-dione] |
| < 50 | Cc1cnc(Nc2ccc3cnccc3c2)cc1N1CCC(CCN2CCN(c3ccc4c(c3)C(=O)N(C3CCC(=O)NC3=O)C4=O)CC2)CC1 (stereo not shown) [Compound 447, 2-(2,6-dioxopiperidin-3-yl)-5-(4-(2-(1-(2-(isoquinolin-6-ylamino)-5-methylpyridin-4-yl)piperidin-4-yl)ethyl)piperazin-1-yl)isoindoline-1,3-dione] |
| > 50 | O=C1CCC(N2C(=O)c3ccc(OCCOCCOCCN4CCC(c5ccc6c(c5)[nH]c5ccncc56)CC4)cc3C2=O)C(=O)N1 (stereo not shown) [Compound 431] |
| < 50 | Cn1c2ccncc2c2ccc(-c3ccc(N4CCC(CCN5CCN(c6ccc7c(c6)C(=O)N(C6CCC(=O)NC6=O)C7=O)CC5)CC4)nc3)cc21 (stereo not shown) [Compound 397, 2-(2,6-dioxopiperidin-3-yl)-5-(4-(2-(1-(5-(5-methyl-5H-pyrido[4,3-b]indol-7-yl)pyridin-2-yl)piperidin-4-yl)ethyl)piperazin-1-yl)isindoline-1,3-dione] |
| < 50 | CC(C)(CC1CCN(c2ncc(-c3ccc4c5cnccc5n(C(F)F)c4c3)cc2F)CC1)N1CCN(c2ccc3c(c2)C(=O)N(C2CCC(=O)NC2=O)C3=O)CC1 (stereo not shown) [Compound 677, 5-(4-(1-(1-(5-(5-(difluoromethyl)-5H-pyrido[4,3-b]indol-7-yl)-3-fluoropyridin-2-yl)piperidin-4-yl)-2-methylpropan-2-yl)piperazin-1-yl)-2-(2,6-dioxopiperidin-3-yl)isoindoline-1,3-dione] |
| > 50 | Cc1ncsc1-c1ccc([C@H](C)NC(=O)[C@@H]2C[C@@H](O)CN2C(=O)C(c2cc(OCCOCCOCCOc3ccc(-c4ccc5c(c4)[nH]c4ccncc45)cn3)no2)C(C)C)cc1 (stereo in doubt) [Compound 395, (2S,4R)-1-((S)-2-(3-(2-(2-(2-((5-(5H-pyrido[4,3-b]indol-7-yl)pyridin-2-yl)oxy)ethoxy)ethoxy)ethoxy)isoxazol-5-yl)-3-methylbutanoyl)-4-hydroxy-N-((S)-1-(4-(4-methylthiazol-5-yl)phenyl)ethyl) pyrrolidine-2-carboxamide] |

Further lines, the compound ahead of its results:

| SMILES | remaining activity at 1 µM [%] |
| --- | --- |
| O=C1CCC(N2C(=O)c3ccc(N4CCN(CCC5CCN(c6ncc(-c7ccc8c9cnccc9n(C(F)F)c8n7)cc6F)CC5)CC4)cc3C2=O)C(=O)N1 (stereo not shown) [Compound 674, 5-(4-(2-(1-(5-(9-(difluoromethyl)-9H-pyrrolo[2,3-b:4,5-c′]dipyridin-2-yl)-3-fluoropyridin-2-yl)piperidin-4-yl)ethyl)piperazin-1-yl)-2-(2,6-dioxopiperidin-3-yl)isoindoline-1,3-dione] | < 50 |
| O=C1CCC(N2C(=O)c3ccc(N4CCN(CC5CCN(C[C@H]6C[C@H](Oc7ncc(-c8ccc9c%10cnccc%10n(C(F)F)c9c8)cc7F)C6)CC5)CC4)cc3C2=O)C(=O)N1 (stereo partly shown) [Compound 667, 5-(4-((1-(((1r,3r)-3-((5-(5-(difluoromehtyl)-5H-pyrido[4,3-b]indol-7-yl)-3-fluoropyridin-2-yl)oxy)cyclobutyl)methyl)piperidin-4-yl)methyl)piperazin-1-yl)-2-(2,6-dioxopiperidin-3-yl) isoindoline-1,3-dione] | < 50 |
| O=C1CCC(N2C(=O)c3ccc(N4CCN(CCCN5CCOC6(CCN(c7ccc8c9cnccc9n(C(F)F)c8c7)CC6)C5)CC4)cc3C2=O)C(=O)N1 (stereo not shown) [Compound 575, 5-(4-(3-(9-(5-(difluoromethyl)-5H-pyrido[4,3-b]indol-7-yl)-1-oxa-4,9-diazaspiro[5.5]undecan-4-yl)propyl)piperazin-1-yl)-2-(2,6-dioxopiperidin-3-yl)isoindoline-1,3-dione] | < 50 |
| O=C1CCC(N2C(=O)c3ccc(N4CCN(CCC5CCN(c6c(F)cc(-c7ccc8c9cnccc9n(C(F)F)c8n7)cc6F)CC5)CC4)cc3C2=O)C(=O)N1 (stereo not shown) [Compound 676, 5-(4-(2-(1-(4-(9-(difluoromethyl)-9H-pyrrolo[2,3-b:4,5-c′]dipyridin-2-yl)-2,6-difluorophenyl)piperidin-4-yl)ethyl)piperazin-1-yl)-2-(2,6-dioxopiperidin-3-yl)isoindoline-1,3-dione] | < 50 |
| CN(C)c1cccc2cnc(-n3ccc4cc(N5CCC(CCN6CCN(c7cc8c(cc7F)C(=O)N(C7CCC(=O)NC7=O)C8=O)CC6)CC5)ncc43)cc12 (stereo not shown) [Compound 653, 5-(4-(2-(1-(1-(5-(dimethylamino)isoquinolin-3-yl)-1H-pyrrolo[2,3-c]pyridin-5-yl)piperidin-4-yl)ethyl)piperazin-1-yl)-2-(2,6-dioxopiperidin-3-yl)-6-fluoroisoindoline-1,3-dione] | < 50 |
| Cc1ccc(-c2cn3ccc(N(C)CCOCCOCCOc4ccc5c(c4)C(=O)N(C4CCC(=O)NC4=O)C5=O)cc3n2)cc1 (stereo not shown) [Compound 463, 2-(2,6-dioxopiperidin-3-yl)-5-(2-(2-(2-(methyl(2-(p-tolyl)imidazo[1,2-a]pyridin-7-yl)amino)ethoxy)ethoxy)ethoxy)isoindoline-1,3-dione] | < 50 |
